Measurements: patent publication US7989435B2, “Phytic citrate compounds and process for preparing the same” (IP-6 Research, Inc., priority 2005, dated 2011)
“And” between values parts separate entries of the source, which are not always exact repeats. Identical values can stand only once. Like-named read-outs stand apart in the source and are kept apart here.

Columns and labels:
[1] = Comparison of chelating effects, divalent cation electrode and ion analyzer; format: binding; parameters: unit not given here
Description: The chelating effects of the various chelators were measured by the conventional method known to an artisan in the art. The concentration of the ions chelated by the chelator was determined using a divalent cation electrode (e.g., Model 93-32, made by Orion Research Incorporated) and an ion analyzer (e.g., Model EA 920, made by Orion Research Incorporated).

[2] = Biodegradability, 301 A DOC Die-Away Test (OECD Guidelines)
Description: The biodegradability of phytic citrate was evaluated according to the method of “301 A DOC Die-Away Test” (1993), OECDGuidelines for Testing of Chemicals.

[3] = Re-dissolution rate of Fe^2+, FIG. 2; settings: in brain tissues, compared with phytic acid and EDTA
[4] = at 66 grams/liter; cited from earlier work
[5] = 7 days, test suspension / reference flask
[6] = 14 days, test suspension / reference flask

O=C(O)[C@H](O)[C@@H](O)[C@H](O)[C@H](O)CO [Gluconic acid]
Ca^2+ (conc. of ions chelated) [1]: 1.20

phytic hexa-citrate [Phytic citrate]
Ca^2+ (conc. of ions chelated) [1]: 12.24 | Degradation (%) in days ([2]; 7 days, abiotic sterile control): <10% | Degradation (%) in days ([2]; 7 days, absorption control): <10% | Degradation (%) in days [2, 5]: >90 (98.0) % and >90 (97.6) % and >90 (99.4) % | Degradation (%) in days ([2]; 14 days (mean of test suspension flasks 1-3)): >90 (99.5) % | Degradation (%) in days ([2]; 14 days, abiotic sterile control): <10% | Degradation (%) in days ([2]; 14 days, absorption control): <10% | Degradation (%) in days [2, 6]: >90 (98.6) % and >90 (100) % | Biodegradability (conclusion in words) ([2]; results of Table 3): readily biodegradable | Re-dissolution rate of Fe^2+ [3]: superior redissolution capability to phytic acid and EDTA

Nc1ccccc1 [Aniline Reference, Aniline, reference compound]
Degradation (%) in days [2, 5]: >90 (100) % | Degradation (%) in days [2, 6]: >90 (99.7) %

O=P(O)(O)O[C@H]1[C@H](OP(=O)(O)O)[C@@H](OP(=O)(O)O)[C@H](OP(=O)(O)O)[C@@H](OP(=O)(O)O)[C@H]1OP(=O)(O)O [Phytic acid]
Ca^2+ (conc. of ions chelated) ([1]; pH 3): 9.73 | Ca^2+ (conc. of ions chelated) ([1]; pH 5): 10.55 | Ca^2+ (conc. of ions chelated) ([1]; pH 7): 10.57 | pH of aqueous solution [4]: 0.9

O=C(O)CN(CCN(CC(=O)O)CC(=O)O)CC(=O)O [EDTA, ethylenediaminetetraacetic acid]
Ca^2+ (conc. of ions chelated) [1]: 10.70

O=C(O)CC(O)(CC(=O)O)C(=O)O [Citric acid]
Ca^2+ (conc. of ions chelated) [1]: 3.50

Polyphosphoric acid
Ca^2+ (conc. of ions chelated) [1]: 3.0

CC(O)C(=O)O (stereo not drawn) [Lactic acid]
Ca^2+ (conc. of ions chelated) [1]: 1.07
